Results published in PubChem BioAssay (NCI).
Several values for one entry are separate records, joined by “and”; a condition that tells them apart may be missing. Equal values may be shown once.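 Grown in 96-well plates, cells were treated for 48 hours with each compound at five concentrations. Insufficient inhibition: endpoint recorded as highest concentration tested. Here, GI50 denotes the concentration required for 50% inhibition of growth. Definition used: TGI = concentration required for complete inhibition of growth.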

tested on: DU-145 prostate; assay: NCI-60 cell line screen, 48 h

Compound	GI50 [µM]	TGI [µM]
Oc1ccc(Nc2ncnc3c2sc2ncccc23)cc1	0.0369	> 100
COc1cccc(CC(C)=C(c2ccc(OCCN(C)C)cc2)c2ccc(OCCN(C)C)cc2)c1	3.86	8.26
COC(=O)COc1ccccc1/C=C1\N=C(c2ccccc2)N(c2cc(C(F)(F)F)ccc2Cl)C1=O	22.1	47.1
C=C1C(=O)OC2CC(C)C(C(CC(C)=O)OC(C)=O)=CCC12 (stereo not given)		30.1
CC(=O)OC1COC(Oc2c(C)c3c4c(c2O)[C@@H](C)CC[C@@H]4[C@@H](C)C[C@H]3C=C(C)C)C(O)C1OC(C)=O (stereo not given in full)	16	32.5
S=C(Nc1ccc(Cl)cc1)Nc1ccc(-c2nc3ccccc3s2)cc1	13.6	30
COC(=O)C[C@](O)(CCCC(C)(C)O)C(=O)O[C@@H]1C(OC)=C[C@]23CCCN2CCc2cc4c(cc2[C@H]13)OCO4	0.0343	

tested on: IGROV1 ovarian; assay: NCI-60 cell line screen, 48 h

Compound	GI50	TGI
COc1ccc(OC)c2c1[nH]c(=O)c1c3ccccc3cn21	< 0.0281 µM	1.43 µM
COc1cccc2c1C(=O)c1c(O)c3c(c(O)c1C2=O)C[C@@](O)(C(=O)CO)C[C@@H]3OC1CC(N)CC(C)O1 (stereo not given in full)	0.0504 µM and 0.0436 µM	1.25 µM and 1.6 µM
CN(C)CCNC(=O)c1cccc2ccc(-c3ccc(O)cc3)nc12	2.06 µM	15.7 µM and 11.8 µM
COc1cc(Nc2ncccc2C(=O)NCc2cn(Cc3cccc(Oc4ccccc4)c3)nn2)cc(OC)c1	> 100 µM	> 100 µM
COc1cccc(C2CC(C)(O)Oc3cc4c(cc32)OCO4)c1O (stereo not given)		> 100 µM
Cn1cc(C2=C(c3ccc(N)cc3)C(=O)NC2=O)c2ccccc21	> 23.7 µM	> 25 µM
Cc1cc(Cl)cc(OCCn2cc(F)cn2)c1-c1nc(N)nc2c1CN(C(=O)NCC(C)(F)F)C2	0.138 µM	> 100 µM
COc1ccc(/C=C\[N+](=O)[O-])cc1OC	1.82 µM	4.46 µM
CCN(CC)CCC(CNc1ccnc2cc(Cl)ccc12)c1ccc(Cl)cc1 (stereo not given)	2.27 µM	7.33 µM
COc1cccc(F)c1C(=O)c1cnc(NC2CCN(S(C)(=O)=O)CC2)nc1N	3.9 µM	> 25 µM
COc1cc(OCc2cccc(-c3ccc(C(O)c4nccs4)cc3)c2C)cc(OC)c1C=O (stereo not given)	0.887 µM	4.84 µM
COC(=O)c1ccc2c(c1)nc(NC(=O)c1ccccc1)n2CCCc1ccccc1	5.01 µM	> 100 µM
O=C(O)COc1ccc2c(=O)c3sc4c(=O)c5ccccc5c(=O)c4c3c(=O)c2c1	18.3 µM	48.3 µM
O=C(Nc1ccc2ncccc2c1)Nc1ccc2ncccc2c1		> 100 µM
CC1(C)S[C@@H]2[C@H](NC(=O)C3(N)CCCCC3)C(=O)N2[C@H]1C(=O)O		> 100 µM
NC(=O)/C=C/C(=O)c1c(Cl)cccc1Cl	1.39 µM	2.8 µM
CC1(C)N=C(N)N=C(N)N1c1ccc(CCCCc2ccc(Cl)cc2S(=O)(=O)F)c(Cl)c1	0.192 µM	21 µM
O=C(Nc1ccc(Nc2ccncc2)cc1)c1ccc([N+](=O)[O-])cc1	13 µM	36.9 µM
C(=NCCN1CCOCC1)=NC1CCCCC1		> 100 µM
COc1ccccc1/C=N\N/C(N)=N\N=C\c1ccccc1OC	0.923 µM	
Oc1ccc(Nc2ncnc3c2sc2ncccc23)cc1	> 23.8 µM	> 100 µM
COc1cccc(CC(C)=C(c2ccc(OCCN(C)C)cc2)c2ccc(OCCN(C)C)cc2)c1	3.98 µM	8.73 µM
COC(=O)COc1ccccc1/C=C1\N=C(c2ccccc2)N(c2cc(C(F)(F)F)ccc2Cl)C1=O	57 µM	> 100 µM
C=C1C(=O)OC2CC(C)C(C(CC(C)=O)OC(C)=O)=CCC12 (stereo not given)		29 µM
CC(=O)OC1COC(Oc2c(C)c3c4c(c2O)[C@@H](C)CC[C@@H]4[C@@H](C)C[C@H]3C=C(C)C)C(O)C1OC(C)=O (stereo not given in full)	13.4 µM	28.8 µM
S=C(Nc1ccc(Cl)cc1)Nc1ccc(-c2nc3ccccc3s2)cc1	16.8 µM	37.9 µM
COC(=O)C[C@](O)(CCCC(C)(C)O)C(=O)O[C@@H]1C(OC)=C[C@]23CCCN2CCc2cc4c(cc2[C@H]13)OCO4	0.0284 µM	1.4 µM and 0.795 µM
